Experimental data from patent US20170304400A1, “METHODS FOR PREVENTING FIBROSIS USING CXCR4 AND/OR CXCR7 BINDING AGENTS” (ViCapsys.Inc, priority 2016, published 2017).

Test system: non-human primate (NHP)
Assay: Intraperitoneal implant of alginate microbeads in non-human primates: surgical inspection, lavage recovery and biopsy histopathology
Format: in vivo
Procedure: In the first non-human primate (NHP) study with alginate microbeads, two animals received intraperitoneal implants of ˜400,000 microbeads each of (1.6% calcium LVM) alginate containing either 1 μg/ml of recombinant human CXCL12 (“CXCL12^+”) or not (“CXCL12”). Microbeads were prepared using a vibrational encapsulation method using a 200 μm nozzle. Microbeads were on average 426-427 μm in diameter with an error of the mean of approximately 10-15%. The diameter was measured after 2 hours in culture media. Microbeads swell 30-40% after transfer into some media or after implantation. Median roundness was less than the desirable 0.90, ranging from 0.78 in the CXCL12^− microbeads (FIG. 1) to 0.80 in the CXCL12^+ (FIG. 2), but with a skew in roundness reflecting a small but significant number of non-round beads. Microbeads were delivered in a blinded manner to operators. During the implant, primate 0715 received the CXCL12^− implant; primate 1715 received the CXCL12^+ implant. Both animals were implanted using a minimally invasive technique featuring placement of beads in 30 cc of 300 mOsmolar calcium chloride solution in the intraperitoneal space and explanted surgically. Neither of the procedures was eventful. Both animals appeared healthy during the entire period of four weeks following the implantation procedure. The explant procedure for each animal involved surgical opening of the peritoneal cavity, visual inspection of all regions of the mesentery and abdomen/pelvis for bead position, lavage with 100 cc of N-saline to recover free microbeads and peritoneal fluid, and biopsy of tissues where microbeads appeared to be embedded in the tissue. Evaluation was done at 30, 90, and 180 days. Arrows point to adhesions.

**Q.** Which “adhesions following surgery or explantation of the capsules” value (CXCL12 applied into the intraperitoneal cavity in alginate capsules) does the source give for “CXCL12: chemokine CXCL12 (also called SDF-1); recombinant human CXCL12 used in the microbeads” here?
**A.** Its value is “no adhesions”.

**Q.** And the “long-term appearance of the peritoneum / surgical adhesions” value (later timepoints (day 90 and day 180), compared to CXCL12^- NHP)?
**A.** The value was “more normal and without surgical adhesions”.

**Q.** What about the “foreign body responses to embedded microbeads” value (through 90 days) of the same substance?
**A.** Its value is “spare embedded microbeads from foreign body responses”.
